Reference: US20050130232A1, “Methods of screening for compounds that modulate hormone receptor activity” (Allergan, Inc., priority 2001, published 2005)

How the values were obtained:
[1] = target: T1, RXRα phosphorylation by protein kinase A (Homo sapiens, UniProt P19793); assay: Phosphorylation of immunoprecipitated RXRα by purified PKA; format: biochemical; conditions: cells incubated with 10^-7 M ligand
T1 construct: host or cells: HEK293
T1 sequence (P19793 1-462): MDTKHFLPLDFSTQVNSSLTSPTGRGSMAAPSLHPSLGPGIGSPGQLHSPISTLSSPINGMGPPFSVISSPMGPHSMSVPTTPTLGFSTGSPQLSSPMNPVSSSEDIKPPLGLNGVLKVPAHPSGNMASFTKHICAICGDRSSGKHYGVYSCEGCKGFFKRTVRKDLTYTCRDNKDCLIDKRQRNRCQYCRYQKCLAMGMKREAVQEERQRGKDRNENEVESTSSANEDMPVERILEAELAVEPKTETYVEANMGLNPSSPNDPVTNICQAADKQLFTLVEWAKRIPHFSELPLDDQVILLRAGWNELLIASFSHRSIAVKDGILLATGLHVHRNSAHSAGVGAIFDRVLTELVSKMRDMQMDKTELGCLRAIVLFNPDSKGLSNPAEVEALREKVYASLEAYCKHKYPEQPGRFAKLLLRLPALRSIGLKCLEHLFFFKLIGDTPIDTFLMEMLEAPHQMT
Procedure: Left panel: Cells were immunoprecipitated with anti-FLAG antibody, and the immunoprecipitates analyzed by SDS-PAGE and blotting with anti-PKA antibody. Right panel: Cells were immunoprecipitated with anti-PKA antibody, and the immunoprecipitates analyzed by SDS-PAGE and blotting with anti-FLAG antibody. B. Phosphorylation of RXRα by PKA. […] PKA I and PKC I indicate inhibitors of PKA and PKC, respectively.
RXRα-containing immunoprecipitates prepared with anti-Flag antibody were incubated with purified catalytically active PKA (Upstate Biotechnology) and […]; in addition, protein kinase A inhibitor or protein kinase C inhibitor was added to some reactions as indicated. The kinase reaction products were analyzed by SDS-PAGE.

[2] = target: T2, RXRα associated protein kinase (Homo sapiens, UniProt P19793); assay: In vitro phosphorylation of exogenous protein substrates by RXR-associated kinase; format: cell-based; conditions: Flag-RXR transfected cells, 10^-7 M
T2 sequence (P19793 1-462): T1 sequence (P19793 1-462)
Procedure: Total cell lysates were immunoprecipitated with anti-FLAG antibody (M2). Immunoprecipitated material was used for in vitro kinas reaction with γ-^32P-ATP alone or with addition of exogenous mixed histones or myelin basic protein (MBP). The phosphorylated proteins were separated on SDS-PAGE and detected by autoradiography.
After terminating the kinase reaction, the products were analyzed by SDS-PAGE.
Kinase reactions with purified proteins were performed essentially as described above for synthetic peptide substrates. Briefly, immunoprecipitated complexes were resuspended in kinase assay buffer with 2 μg myelin basic protein (Sigma) or histone-M (Roche), and kinase reactions initiated by addition of 50 μM [γ-^32P]ATP (10 μCi). The reaction mixtures were then incubated at 25° C. with occasional shaking for 20 minutes, and terminated by addition of sample buffer. SDS-PAGE analysis and autoradiography were used to visualize the results.

[3] = system: RXR-associated protein kinase in Flag-RXR immunocomplexes; assay: In vitro kinase reaction with [γ-32P]ATP on Flag-RXR immunocomplexes from transfected HEK 293 cells; format: cell-based, human
Source text: (§1) Total cell lysates were immunoprecipitated with anti-Flag antibody (M2). Aliquots of the immunocomplexes were used for the in vitro kinase reaction with [γ-^32P]ATP and separated on SDS-PAGE. Phosphorylated proteins were detected by autoradiography (top panel). Additional aliquots of the immunocomplexes were subjected to immunoblotting with polyclonal anti-RXR antisera (D20; bottom panel). (B) Phosphoamino acid analysis. Flag-RXR and the 160-kDa protein were phosphorylated in vitro and separated on SDS-PAGE as described above, then transferred onto PVDF membrane, detected by autoradiography, and cut out for hydrolysis with acid (6 N HCl). The phosphorylated amino acids and standards (P-Ser, P-Thr, and P-Tyr) were separated by thin-layer chromatography. Positions of the standards P-Ser, P-Thr, and P-Tyr were visualized by ninhydrin staining and are indicated by arrows. (C) In vivo metabolic labeling of transfected HEK 293 cells. […] Cells were washed with phosphate-free medium and starved for 90 minutes before incubation with [^32P]orthophosphate for another 4 hours. […] Total cell lysates were immunoprecipitated with anti-Flag antibody (M2) and subjected to separation on SDS-PAGE. Phosphorylated proteins were detected by autoradiography.
(§2) Total cell lysates were subjected to immunoprecipitation, and the in vitro kinase reaction performed as described above.
(§3) Cell lysis, immunoprecipitation with anti-Flag (M2), in vitro kinase assay, and detection of the phosphorylated proteins in the RXRα immunoprecipitated complexes were performed as described above.
(§4) Cell culture and transient transfection was performed as follows. HEK 293 cells were grown in Dulbecco's modified Eagle's medium (DMEM) supplemented with 10% fetal bovine serum (FBS), 100U of penicillin per ml and 10 μg of streptomycion per ml at 37° C. in 5% CO2. For expression of RXR protein, 100-mm dishes of cells were transfected at 50% confluence with 2 μg of plasmid DNA using Lipofectamine (Life Technologies) as specified by the manufacturer. At 32 hours post-transfection, cells were starved by incubating in DMEM medium with 2.5% charcoal-treated fetal bovine serum or 0.1-0.5% calf bovine serum overnight, and then treated with indicated agents. Cells were harvested by aspirating medium, rinsing in phosphate buffered saline (PBS), and extracting into Lysis Buffer (30 mM Tris-HCL, pH 7.4, 0.5% Nonidet P-40, 10% glycerol, 150 mM NaCl, 1 mM EDTA, 40 mM NaF, 1 mM sodium orthovanadate, and 0.5 mM phenylmethylsufonyl fluoride, and 1× protease inhibitors, (Roche Diagnostics) or 1×SDS Sample Buffer.
(§5) Immunoprecipitation was performed essentially as follows. Cells were solubilized in cold Lysis Buffer and subsequently clarified by centrifugation at 20,000 g for 10 minutes at 4° C. Immunoprecipitations were performed at 4° C. by incubating clarified cell extracts with the indicated antibodies (2 μg/ml) and protein A/G-agarose beads (1:30 dilution of a 50% suspension) on a rotating wheel for 4 hours to overnight. Agarose beads were pelleted by low speed centrifugation and washed extensively with ice-cold Lysis Buffer.
(§6) Protein kinase assays were performed as follows. Immunoprecipitated complexes were resuspended in 15 μl of Kinase Assay Buffer (30 mM Tris-HCl, pH 7.4 and 10 mM MgCl2). Kinase reactions were initiated by addition of 2.5 μl of 50 μM [γ-^32P]ATP (10 μCi) to the immune-complexes, followed by incubation at 25° C. with occasional shaking for 20 minutes, and terminated by addition of 6 μl 4×SDS Sample Buffer. After heating at 100° C. for 5 minutes, the reaction mixtures were resolved by 4-12% SDS-PAGE. Incorporation of ^32P into RXR or other proteins was determined by autoradiography.

[4] = target: T3, RXR-associated protein kinase in Flag-RXR immunocomplexes (Homo sapiens, UniProt P19793); assay: as above; format: cell-based; conditions: transfected HEK 293 cells treated with ligand before anti-Flag immunoprecipitation
T3 construct: expressed in transfected cells; host or cells: HEK 293
T3 sequence (P19793 1-462): T1 sequence (P19793 1-462)
Source text: as §1, §2, §3, §4, §5, §6

`CC(/C=C/[C@@H]1C[C@]1(C)c1ccc2c(c1)C(C)(C)CCC2(C)C)=C\C(=O)O` [AGN194204] was tested, and the “extent of RXRα phosphorylation by purified PKA” value [1] was “increased”, the “in vitro phosphorylation of histone-M” value [2] was “increased” and the “in vitro phosphorylation of myelin basic protein (MBP)” value [2] was “dramatically increased”. The “recruitment of kinase activity to the immunocomplex” value ([3]; AF-2 region deleted from RXRα) was “kinase activity was not recruited”, the “recruitment of kinase activity to the immunocomplex” value ([3]; RXRα deletion mutants containing an intact E region) was “recruited kinase activity” and the “phosphorylation of RXR and 160 kDa protein in Flag-RXR immunocomplexes” value [4] was “contained a kinase phosphorylated RXR and a 160 kDa protein”.
